# Legend:
# HuapoAI transgenic mice = test: Evaluation of triglyceride and cholesterol level in HuapoAI transgenic mice; format: in vivo; details: Mus musculus, 168 h, 30 mg/kg daily oral gavage 7 days
# Procedure: Five to six week old male mice, transgenic for human apoAI [C57Bl/6-tgn(apoa1)lrub, Jackson Laboratory, Bar Harbor, Me.] were housed five per cage (10″×20″×8″ with aspen chip bedding) with food (Purina 5001) and water available at all times. After an acclimation period of 2 weeks, animals were individually identified by ear notches, weighed, and assigned to groups based on body weight. Beginning the following morning, mice were dosed daily by oral gavage for 7 days using a 20 gauge, 1½″ curved disposable feeding needle (Popper & Sons). Treatments were test compounds (30 mg/kg), a positive control (fenofibrate, 100 mg/kg) or vehicle [1% carboxymethylcellulose (w/v)/0.25% Tween80 (w/v); 0.2 ml/mouse]. Prior to termination on day 7, mice were weighed and dosed. Three hours after dosing, animals were anesthetized by inhalation of isoflurane (2-4%; Abbott Laboratories, Chicago, Ill.) and blood obtained via cardiac puncture (0.7-1.0 ml). Whole blood was transferred to serum separator tubes (Vacutainer SST), chilled on ice, and permitted to clot. Serum was obtained after centrifugation at 4° C. and frozen until analysis for triglycerides, total cholesterol, compound levels, and serum lipoprotein profile by fast protein liquid chromatography (FPLC) coupled to an inline detection system. After sacrifice by cervical dislocation, the liver, heart and epididymal fat pads were excised and weighed.
# The animals dosed with vehicle had average triglycerides values of 60-80 mg/dl, which were reduced by the positive control fenofibrate (33-58 mg/dl with a mean reduction of 37%). The animals dosed with vehicle had average total serum cholesterol values of 140-180 mg/dl, which were increased by fenofibrate (190-280 mg/dl, with a mean elevation of 41%). […] Fenofibrate increased the amount of HDLc (68-96 v-sec with a mean percent increase of 48%).
# Glucose was measured colorimetrically using commercially purchased reagents (Sigma #315-500). According to the manufacturers, the procedures were modified from published work (McGowan, M. W., Artiss, J. D., Strandbergh, D. R. & Zak, B. Clin Chem, 20:470-5 (1974) and Keston, A. Specific colorimetric enzymatic analytical reagents for glucose. Abstract of papers 129th Meeting ACS, 31C (1956).); and depend on the release of a mole of hydrogen peroxide for each mole of analyte, coupled with a color reaction first described by Trinder (Trinder, P. Determination of glucose in blood using glucose oxidase with an alternative oxygen acceptor. Ann Clin Biochem, 6:24 (1969)). The absorbance of the dye produced is linearly related to the analyte in the sample. The assays were further modified in our laboratory for use in a 96 well format. Standards (Sigma #339-11, Sigma #16-11, and Sigma #CC0534 for glucose triglycerides and total cholesterol, respectively), quality control plasma (Sigma # A2034), and samples (2 or 5 μl/well) were measured in duplicate using 200 μl of reagent. An additional aliquot of sample, pipetted to a third well and diluted in 200 μl water, provided a blank for each specimen. Plates were incubated at room temperature (18, 15, and 10 minutes for glucose, triglycerides and total cholesterol, respectively) on a plate shaker (DPC Micormix 5) and absorbance read at 500 nm (glucose and total cholesterol) or 540 nm (triglycerides) on a plate reader (Wallac Victor 1420). Sample absorbances were compared to a standard curve (100-800, 10-500, and 100-400 mg/dl for glucose, triglycerides and total cholesterol, respectively). Values for the quality control sample were always within the expected range and the coefficient of variation for samples was below 10%. All samples from an experiment were assayed at the same time to minimize inter-assay variability.
# Serum lipoproteins were separated and cholesterol quantitated with an in-line detection system. Sample was applied to a Superose® 6 HR 10/30 size exclusion column (Amersham Pharmacia Biotech) and eluted with phosphate buffered saline-EDTA at 0.5 ml/min. […]
SMILES,melting point [°C],change in vivo at 30 mg/kg (HuapoAI transgenic mice; percent increase in FPLC HDLc area under the curve) [%],"inhibition in vivo at 30 mg/kg (HuapoAI transgenic mice; serum, male human apoAI transgenic mice, read-out: % Triglyceride Reduction) [%]"
"CC(C)(Oc1ccc(OCCc2coc(-c3ccccc3)n2)cc1)C(=O)[O-].[Na+] [Example 3, Sodium 2-methyl-2-{4-[2-(2-phenyloxazol-4-yl)ethoxy]phenoxy}propionate]",199 to 200,63,66
"C=Cc1cccc(-c2nc(CCOc3ccc(OC(C)(C)C(=O)O)cc3)c(C)o2)c1 [Example 10A, 2-Methyl-2-(4-{2-[5-methyl-2-(3-vinylphenyl)oxazol-4-yl]ethoxy}phenoxy)propionic acid]",137 to 139,–,–
"C#Cc1ccc(-c2nc(CCOc3ccc(OC(C)(C)C(=O)O)cc3)c(C)o2)cc1 [Example 11, 2-(4-{2-[2-(4-Ethynylphenyl)-5-methyloxazol-4-yl]ethoxy}phenoxy)-2-methylpropionic acid]",137 to 139,–,–
"Cc1oc(-c2ccc(C(N)=O)cc2)nc1CCOc1ccc(OC(C)(C)C(=O)O)cc1 [Example 14, 2-(4-{2-[2-(4-Carbamoylphenyl)-5-methyloxazol-4-yl]ethoxy}phenoxy)-2-methylpropionic acid]",126 to 127,–,–

# Further lines, with some results ahead:
melting point [°C],SMILES,change in vivo at 30 mg/kg (HuapoAI transgenic mice; percent increase in FPLC HDLc area under the curve) [%],"inhibition in vivo at 30 mg/kg (HuapoAI transgenic mice; serum, male human apoAI transgenic mice, read-out: % Triglyceride Reduction) [%]"
140 to 141,"Cc1oc(-c2ccccc2)nc1CCOc1cccc(OC(C)(C)C(=O)O)c1 [Example 23, 2-methyl-2-{3-[2-(5-methyl-2-phenyloxazol-4-yl)ethoxy]phenoxy}propionic acid]",–,–
133,"Cc1cc(OCCc2nc(-c3ccccc3)oc2C)ccc1OCC(=O)O [Example 25, {2-Methyl-4-[2-(5-methyl-2-phenyloxazol-4-yl)ethoxy]phenoxy}acetic acid]",–,–
163.5,"Cc1sc(-c2ccccc2)nc1CCOc1ccc(OC(C)(C)C(=O)O)cc1 [Example 35, 2-Methyl-2-{4-[2-(5-methyl-2-phenyl-thiazol-4-yl)-ethoxy]phenoxy}-2-methyl-propionic acid]",–,–
